These results are taken from patent US20080280764A1, “Method of Desiccating and/or Defoliating Glyphosate Resistant Crops” (priority 2005, published 2008).

The assay concerns Glyphosate resistant cotton. In words: Field test: defoliation and desiccation of glyphosate resistant cotton. It is filed as in vivo. Particulars: post-emergence spray, scale 0-100% vs untreated plots. The procedure:
In the examples below, the value E which is to be expected if the activity of the individual compounds is just additive was calculated using the method of S. R. Colby (1967) “Calculating synergistic and antagonistic responses of herbicide combinations”, Weeds 15, p. 22 ff.
where X=effect in percent using active compound A at an application rate a; Y=effect in percent using active compound B at an application rate b; E=expected effect (in %) of A+B at application rates a+b.
If the experimentally determined value is higher than the value E calculated according to Colby's equation, a synergistic effect is present.
The phenyluracils I and/or the other active ingredients according to the present invention were formulated in a suitable way, either separately or in mixture, e.g. as emulsifiable concentrates (EC), soluble concentrates (SL), suspo-emulsions (SE), suspension concentrates (SC) or water-dispersible granules (WG). The formulation(s) were suspended or emulsified in water as a distribution medium immediately prior to spraying. Afterwards, the aqueous mixture was evenly sprayed on the test plots by means of finely distributing nozzles.
The test plots of rows of fully mature crop plants at the beginning of leaf fall were of uniform size (typically between 14 and 37 square meters, each) and the distribution of treated and untreated plots was organized according to a randomised bloc design. The plots were treated post-emergence, i.e. the aqueous mixture as described above was sprayed on the crop plants.
The evaluation of the defoliation or desiccation caused by the phenyluracils I and/or the other active ingredients according to the present invention was carried out using a scale from 0 to 100%, compared to the untreated control plots. Here, 0 means no defoliation or desiccation and 100 means complete defoliation of the crop plants, or complete desiccation of the leaves of the crop plant.
Defoliation and Desiccation of Glyphosate Resistant Cotton by the Phenyluracil 1.7 Alone as Well as by a Mixture of the Phenyluracil 1.7 and Glyphosate; Field Test
In this example, glyphosate (isopropylammonium salt) was formulated as a 360 g/l SL and Phenyluracil 1.7 as a 120 g/l EC. Prior to application, the formulated active ingredients were tank-mixed with an aqueous 140 l/ha spray solution which contained, in addition, 10 g/l of Agridex.

Where [1] appears, read: use rate Phenyluracil I.7 12.5 g/ha.

`O=C(O)CNCP(=O)(O)O` [Glyphosate, glyphosate]: where the note is “use rate glyphosate 840 g/ha”, the “Glyphosate resistant cotton defoliation at 4 DAT (% defoliation), Found” value turned out to be 0% and the “Glyphosate resistant cotton desiccation at 4 DAT (% desiccation), Found” value worked out at 3%.

For `CC(C)N(C)S(=O)(=O)NC(=O)c1cc(-n2c(=O)cc(C(F)(F)F)n(C)c2=O)c(F)cc1Cl` [I.7], under setting [1], the “Glyphosate resistant cotton defoliation at 4 DAT (% defoliation), Found” value worked out at 13% and the “Glyphosate resistant cotton desiccation at 4 DAT (% desiccation), Found” value was 63%.
